Experiment [1] concerns the target human Gal-3 (hGal-3) (Homo sapiens (Human), UniProt P17931). Nature of the experiment: Competitive binding assay: binding of biotinylated hGal-3 to microplate-adsorbed asialofetuin (ASF). The following applies: Activity on hGal-3; mean values of several measurements. The gist of the method: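 Spectrophotometric readout (streptavidin-peroxidase, ABTS) of biotinylated galectin retained on ASF-coated wells. Biotinylated hGal-1 or hGal-3, 300-1000 ng/mL, co-incubated with test compound 3 h at 4° C, then washed. Mean IC50 from repeat runs.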

The target in experiment [2] is human Gal-1 (hGal-1). The experiment can be described thus: Competitive binding assay: binding of biotinylated hGal-1 to microplate-adsorbed asialofetuin (ASF). Conditions: Activities on hGal-1; mean values of several measurements. The essentials:
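For hGal-1, a variant with all six cysteines replaced by serines is preferred. Either galectin, biotinylated at 300-1000 ng/mL, competes with compound for microplate-bound ASF over 3 h at 4° C; peroxidase/ABTS detection gives IC50, averaged.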

Chain of human Gal-1 (hGal-1) (P09382 2-135 limits assumed): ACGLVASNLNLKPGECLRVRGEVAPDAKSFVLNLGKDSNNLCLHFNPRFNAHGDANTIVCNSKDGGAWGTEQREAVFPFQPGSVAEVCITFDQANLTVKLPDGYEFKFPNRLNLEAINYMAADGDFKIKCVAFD
Chain of human Gal-3 (hGal-3) (P17931 whole entry): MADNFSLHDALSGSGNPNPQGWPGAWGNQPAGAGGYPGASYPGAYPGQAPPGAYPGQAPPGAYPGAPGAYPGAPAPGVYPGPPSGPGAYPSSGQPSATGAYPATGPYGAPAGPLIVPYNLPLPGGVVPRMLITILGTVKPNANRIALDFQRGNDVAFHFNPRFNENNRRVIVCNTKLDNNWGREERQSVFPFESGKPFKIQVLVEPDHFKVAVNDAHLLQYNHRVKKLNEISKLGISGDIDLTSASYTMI

For orientation: IC50 means the concentration at which inhibition is half-maximal. For the molecule `CO[C@@H]1[C@@H](n2cc(-c3cc(F)c(F)c(F)c3)nn2)[C@@H](O)[C@@H](CO)O[C@@H]1Cc1cc(C(C)(C)C(F)F)no1` [Ex 1.303], the 50% inhibitory concentration (IC50) in experiment [1] came out at 140 nM; in experiment [2], 550 nM.

In the case of `CC(C)(C)OC(=O)N1CCC(C2=NOC(C[C@H]3O[C@H](CO)[C@H](O)[C@H](n4cc(-c5ccc6ncsc6c5)nn4)[C@H]3O)C2)CC1` (stereo partly shown) [Ex 1.98], the values for the IC50 in experiment [1] and in experiment [2] were 1560 nM and 1840 nM, respectively.

Turning to `CO[C@@H]1[C@@H](n2cc(-c3cc(F)c(F)c(F)c3)nn2)[C@@H](O)[C@@H](CO)O[C@@H]1Cc1cn(C2CCN(C(C)=O)CC2)nn1` [Example 4.06, 1-(4-(4-(((2R,3R,4S,5R,6R)-5-hydroxy-6-(hydroxymethyl)-3-methoxy-4-(4-(3,4,5-trifluorophenyl)-1H-1,2,3-triazol-1-yl)tetrahydro-2H-pyran-2-yl)methyl)-1H-1,2,3-triazol-1-yl)piperidin-1-yl)ethan-1-one], the IC50 in experiment [1] was determined as 52 nM; in experiment [2], 160 nM.

For the molecule `CCC(=O)O[C@@H]1[C@@H](n2cc(-c3cc(F)c(F)c(F)c3)nn2)[C@@H](O)[C@@H](CO)O[C@@H]1Cc1cc(C2CCN(C(=O)OC(C)(C)C)CC2)on1` [Example 2.15, tert-butyl 4-(3-(((2R,3R,4S,5R,6R)-5-hydroxy-6-(hydroxymethyl)-3-(propionyloxy)-4-(4-(3,4,5-trifluorophenyl)-1H-1,2,3-triazol-1-yl)tetrahydro-2H-pyran-2-yl)methyl)isoxazol-5-yl)piperidine-1-carboxylate], the results for the IC50 in experiment [1] and in experiment [2] were 95 nM and 2140 nM, respectively.

As for `CO[C@@H]1[C@@H](n2cc(-c3cc(F)c(F)c(F)c3)nn2)[C@@H](O)[C@@H](CO)O[C@@H]1Cc1cc(C2CCCC2)no1` [Ex 1.222], the values for the concentration for half-maximal inhibition (IC50) in experiment [1] and in experiment [2] were 110 nM and 8000 nM, respectively.

With `CO[C@@H]1[C@@H](n2cc(-c3ccc(C)c(F)c3F)nn2)[C@@H](O)[C@@H](CO)O[C@@H]1Cc1cc(C2(C)CCCC2)no1` [Ex 1.288], the IC50 in experiment [1] came out at 63 nM; in experiment [2], 5750 nM.

Turning to `CO[C@@H]1[C@@H](n2cc(-c3ccc(C)c(F)c3F)nn2)[C@@H](O)[C@@H](CO)O[C@@H]1Cc1cc(C2(C)COC2)no1` [Ex 1.256], the IC50 in experiment [1] was found to be 55 nM; in experiment [2], 1560 nM.

On to `CC(C)(C)OC(=O)N1CCC(C2=NOC(C[C@H]3O[C@H](CO)[C@H](O)[C@H](n4cc(-c5cc(F)c(F)c(F)c5)nn4)[C@H]3OCC(=O)O)C2)CC1` (mixture of isomers) [Example 2.34, 2-(((2R,3R,4S,5R,6R)-2-(((RS)-3-(1-(tert-butoxycarbonyl)piperidin-4-yl)-4,5-dihydroisoxazol-5-yl)methyl)-5-hydroxy-6-(hydroxymethyl)-4-(4-(3,4,5-trifluorophenyl)-1H-1,2,3-triazol-1-yl)tetrahydro-2H-pyran-3-yl)oxy)acetic acid], for which the figures for the IC50 in experiment [1] and in experiment [2] were 68 nM and 1190 nM, respectively.

Consider `CC(C)(C)OC(=O)N1CCC(c2cc(C[C@H]3O[C@H](CO)[C@H](O)[C@H](n4cc(-c5cc(F)c(F)c(F)c5)nn4)[C@H]3O)no2)C1` (stereo partly shown) [Ex 1.55], for which the IC50 amounted to 660 nM in experiment [1] and 41900 nM in experiment [2].

Turning to “(2R,3R,4S,5R,6R)-4-(4-(4-chloro-2,3-difluorophenyl)-1H-1,2,3-triazol-1-yl)-6-((3-(1-hydroxycyclobutyl)isoxazol-5-yl)methyl)-2-(hydroxymethyl)-5-methoxytetrahydro-2H-pyran-3-ol [Example 2.58]”, the IC50 came out at 60 nM in experiment [1] and 1460 nM in experiment [2].

As for `Cc1ccc(-c2cn([C@H]3[C@@H](O)[C@@H](CO)O[C@H](Cc4cc(C(C)(C)C)no4)[C@@H]3O)nn2)c(F)c1F` [Example 2.50, (2R,3R,4R,5R,6R)-2-((3-(tert-butyl)isoxazol-5-yl)methyl)-4-(4-(2,3-difluoro-4-methylphenyl)-1H-1,2,3-triazol-1-yl)-6-(hydroxymethyl)tetrahydro-2H-pyran-3,5-diol], the IC50 was determined as 130 nM in experiment [1] and 6810 nM in experiment [2].

As for `CO[C@@H]1[C@@H](n2cc(-c3cc(F)c(F)c(F)c3)nn2)[C@@H](O)[C@@H](CO)O[C@@H]1Cc1cc(C2CCNC2)on1` (mixture of isomers) [Example 2.08, (2R,3R,4S,5R,6R)-2-(hydroxymethyl)-5-methoxy-6-((5-((RS)-pyrrolidin-3-yl)isoxazol-3-yl)methyl)-4-(4-(3,4,5-trifluorophenyl)-1H-1,2,3-triazol-1-yl)tetrahydro-2H-pyran-3-ol], the concentration for half-maximal inhibition (IC50) in experiment [1] turned out to be 650 nM; in experiment [2], 4500 nM.

For `CC1(c2cc(C[C@H]3O[C@H](CO)[C@H](O)[C@H](n4cc(-c5ccc(F)c(F)c5F)nn4)[C@H]3OCC(=O)O)on2)CC1` [Example 2.44, 2-(((2R,3R,4S,5R,6R)-5-hydroxy-6-(hydroxymethyl)-2-((3-(1-methylcyclopropyl)isoxazol-5-yl)methyl)-4-(4-(2,3,4-trifluorophenyl)-1H-1,2,3-triazol-1-yl)tetrahydro-2H-pyran-3-yl)oxy)acetic acid], the IC50 in experiment [1] is 40 nM; in experiment [2] it was 510 nM.

`CO[C@@H]1[C@@H](n2cc(-c3ccc(Br)c(F)c3F)nn2)[C@@H](O)[C@@H](CO)O[C@@H]1Cc1cc(C2CCN(C(C)=O)CC2)on1` [Ex 1.164]: the IC50 was found to be 38 nM in experiment [1] and 1070 nM in experiment [2].

As to `CO[C@@H]1[C@@H](n2cc(-c3ccc(C)c(F)c3F)nn2)[C@@H](O)[C@@H](CO)O[C@@H]1Cc1cc(C2(C)CCCC2)on1` [Ex 1.274], the IC50 in experiment [1] is 110 nM; in experiment [2], 5540 nM.

In the case of `CO[C@@H]1[C@@H](n2cc(-c3cc(F)c(F)c(F)c3)nn2)[C@@H](O)[C@@H](CO)O[C@@H]1Cn1cc(-c2cccc(F)c2)nn1` [Example 4.01, (2R,3R,4S,5R,6R)-6-((4-(3-fluorophenyl)-1H-1,2,3-triazol-1-yl)methyl)-2-(hydroxymethyl)-5-methoxy-4-(4-(3,4,5-trifluorophenyl)-1H-1,2,3-triazol-1-yl)tetrahydro-2H-pyran-3-ol], the results for the IC50 in experiment [1] and in experiment [2] were 1240 nM and 13500 nM, respectively.

Regarding `OC[C@H]1O[C@H](Cc2cc(C3CCCC3)on2)[C@H](O)[C@@H](n2cc(-c3cc(F)c(F)c(F)c3)nn2)[C@H]1O` [Ex 1.57], the IC50 in experiment [1] was determined as 400 nM; in experiment [2], 12500 nM.

In the case of `CO[C@@H]1[C@@H](n2cc(-c3cc(F)c(F)c(F)c3)nn2)[C@@H](O)[C@@H](CO)O[C@@H]1C[C@@H]1CC(c2ccc3[nH]c(=O)oc3c2)=NO1` [Ex 1.30], the half-inhibitory concentration (IC50) was determined as 330 nM in experiment [1] and 3090 nM in experiment [2].

In the case of `CC(C)(C)OC(=O)N1CCC(C2=NOC(C[C@H]3O[C@H](CO)[C@H](O)[C@H](n4cc(-c5cc(F)c(F)c(F)c5)nn4)[C@H]3OCC(F)F)C2)CC1` (mixture of isomers) [Example 2.32, tert-butyl 4-((RS)-5-(((2R,3R,4S,5R,6R)-3-(2,2-difluoroethoxy)-5-hydroxy-6-(hydroxymethyl)-4-(4-(3,4,5-trifluorophenyl)-1H-1,2,3-triazol-1-yl)tetrahydro-2H-pyran-2-yl)methyl)-4,5-dihydroisoxazol-3-yl)piperidine-1-carboxylate], the results for the IC50 in experiment [1] and in experiment [2] were 350 nM and 2960 nM, respectively.

Take `COc1cc(-c2cn([C@H]3[C@@H](O)[C@@H](CO)O[C@H](CC4CC(C5CCN(C(=O)OC(C)(C)C)CC5)=NO4)[C@@H]3O)nn2)cc(F)c1F` (stereo partly shown) [Ex 1.108]: the IC50 is 180 nM in experiment [1] and 1690 nM in experiment [2].

These data come from US12319672B2, “Alpha-D-galactopyranoside derivatives” (Idorsia Pharmaceuticals Ltd, priority 2019, dated 2025).
